Measured values published in the supplement of paper PMC10290057.
Where a name gives a salt, the structure may show the parent alone.

Columns and labels:
HCT116 [1] = test: AC50 cell viability (CellTiter-Glo); higher = less potent; conditions: 48 h
HCT116 [2] = test: efficacy (fitted maximal change in viability relative to DMSO control); higher = less cytotoxic (negative = loss of viability); conditions: 48 h
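For AC50 cell viability (CellTiter-Glo) in this document: HCT116 colorectal carcinoma cells screened at five concentrations per compound, luminescent viability scaled between DMSO wells and empty wells on each plate, curves fitted per compound.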
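For efficacy (fitted maximal change in viability relative to DMSO control) in this document: Luminescence-based viability readout, five doses per compound, normalized against on-plate DMSO and empty-well controls, followed by dose-response curve fitting for every drug.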

| Compound | AC50 cell viability (HCT116 [1]) [µM] | efficacy (HCT116 [2]) [%] |
| --- | --- | --- |
| O=C(Nc1ccc([N+](=O)[O-])cc1Cl)c1cc(Cl)ccc1O [Niclosamide] | 1.05 | -90.8 |
| CN1CCN(c2ncc(-c3cc(Cl)cc(Cl)c3Cl)c(N)n2)CC1 [Sipatrigine] | 18.6 | -74.6 |
| C[C@@H]1COCCN1c1cc(C2([S@+](C)(=N)[O-])CC2)nc(-c2ccnc3[nH]ccc23)n1 [AZD-6738] | 8.33 | -84.1 |
| O=C(Nc1ccc([S+](=O)([O-])N2CCOCC2)cc1)c1cc(Cl)ccc1N[S+](=O)([O-])c1ccc(Cl)s1 [Ataciguat] | 23.5 | -76 |
| COC1=C(F)C=C\2C(=C1)\N=C/3NNC(=C3\N=C2C4=CC=CC=C4Cl)/C [R-1530] | 14.8 | -73.2 |
| CCOC1=CC=CC=C1N\2C(=O)C3=C(C=CC=C3)\N=C2C(C)N4CCN(CC4)C(=O)COC5=CC=C(Cl)C=C5 (centres undefined) [Erastin] | 3.32 | -70.4 |
| COCC(=O)NC/C=C/c1ccc2ncnc(Nc3ccc(Oc4ccc(C)nc4)c(C)c3)c2c1 | 20.9 | -64.8 |
| CC(C)n1cnc2c(NCCCCCCNC(=O)OC(C)(C)C)nc(NCCO)nc21 [CK-59] | 26.3 | -79.7 |
| CNCCCOc1cc(F)c(-c2c(Cl)nc3ncnn3c2N[C@@H](C)C(F)(F)F)c(F)c1 [Cevipabulin] | 0.0525 | -60.6 |
| O=C(CCCCCCNC(=O)c1cnc(N(c2ccccc2)c2ccccc2Cl)nc1)NO [ACY-241] | 5.9 | -86.2 |
| CCCCNc1ncc2c(-c3ccc(F)cc3)nn(C[C@H]3CC[C@H](N)CC3)c2n1 [UNC-569] | 7.23 | -83.5 |
| C[C@@H](O)[C@@H](C)Oc1nc(Nc2ccc([S+](=N)([O-])C3CC3)cc2)ncc1C(F)(F)F (some centres undefined) [Roniciclib] | 18.6 | -94 |
| CCC[C@H](Nc1nc(-c2ccc(NC(=O)NCC)c(OC)c2)ncc1C)c1cccnc1 [Lexibulin hydrochloride] | 0.0742 | -73.5 |
| O=C([O-])C[C@H](O)C[C@H](O)/C=C/c1c(C2CC2)nc2ccccc2c1-c1ccc(F)cc1 [Pitavastatin calcium] | 14.8 | -103 |
| Nc1ncnc2c1c(COc1cccc(Cl)c1)nn2C1CCOCC1 | 18.6 | -37.2 |
| Cc1nc2ccc(-n3ncc(C(=O)c4cc5ccccc5[nH]4)c3N)cc2[nH]1 | 8.33 | -71.3 |
| Cc1cccc(CN2CCN(C(c3ccccc3)c3ccc(Cl)cc3)CC2)c1 (centres undefined) [Meclizine hydrochloride] | 20.9 | -43.1 |
| N#Cc1cccc(-c2c[nH]c3ncnc(N4CCOCC4)c23)c1 | 16.6 | -40.9 |
| C[C@@H]1CC[C@@]2(OC1)O[C@H]3C[C@H]4[C@@H]5C/C=C6/C[C@H](CC[C@]6(C)[C@H]5CC[C@]4(C)[C@H]3[C@@H]2C)O[C@@H]7O[C@H](CO)[C@@H](O[C@@H]8O[C@@H](C)[C@H](O)[C@@H](O)[C@H]8O)[C@H](O)[C@H]7O[C@@H]9O[C@@H](C)[C@H](O)[C@@H](O)[C@H]9O [Dioscin] | 5.25 | -101 |
| C[C@H]1CNC(=O)c2cnn3ccc(nc23)N[C@H](C)c2cc(F)ccc2O1 [TPX-0005] | 2.35 | -87.5 |
| CCN1C(=O)\C(=C/C2=C(C)N=C(N)N=C12)C3=CC=N[NH]3 [Voxtalisib] | 5.25 | -60.4 |

| Compound | AC50 cell viability (HCT116 [1]) [µM] | efficacy (HCT116 [2]) [%] |
| --- | --- | --- |
| COc1nc(OCc2cccc(-c3ccccc3)c2C)ccc1CNCCNC(C)=O [BMS-202] | 14.8 | -89.9 |
| C[C@]12CC[C@H]3[C@@H](CC[C@@]45O[C@@H]4\C(=C(/C[C@]35C)C#N)O)[C@@H]1CC[C@@H]2O [Trilostane] | 13.2 | -31.9 |
| O=C(N[C@H]1CCC[C@H](CO)C1)C1CCN(c2nc3cc(Cl)c(-c4ccc(Cl)cc4)cc3o2)CC1 | 23.5 | -83.2 |
| CCc1cc(C(N)=O)ccc1-n1nc(C(C)C)c2c(-n3cnc(-c4cnn(C)c4)c3)ccnc21 [TAS-116] | 1.05 | -65.3 |
| COc1ccc([S+](=O)([O-])N(CCO)c2ccccc2CN(C)C/C=C/c2ccc(Cl)cc2)cc1 [KN-93] | 14.8 | -93.9 |
| O=C(Nc1ccccc1-c1cn2c(CN3CCNCC3)csc2n1)c1cnc2ccccc2n1 [SRT-1720] | 7.42 | -83.6 |
| CN(C)C/C=C/C(=O)Nc1cc2c(Nc3ccc(F)c(Cl)c3)ncnc2cc1O[C@H]1CCOC1 [Afatinib] | 4.68 | -100 |
| C1=CC2=N/C(=N\c3ccc(OCCN4CCCC4)c(c3)COC/C=C/COCc3cccc2c3)N1 [Pacritinib] | 1.86 | -89.9 |
| CCN(CC)CCNC(=O)c1ccc2nc(-c3ccccc3)c(-c3ccc(CN4CCC(n5c(=O)[nH]c6ccccc65)CC4)cc3)nc2c1 [Merck-22-6] | 8.33 | -99.8 |
| Cn1cnc(-c2cc3nccc(Oc4ccc(NC(=S)NC(=O)Cc5ccccc5)cc4F)c3s2)c1 [MGCD-265] | 16.6 | -59.3 |
| CCOC(=O)CCNc1cc(N2CCc3ccccc3CC2)nc(-c2ccccn2)n1 [GSK-J4] | 2.95 | -90.6 |
| CC(C)N(CCCNC(=O)Nc1ccc(C(C)(C)C)cc1)C[C@H]1O[C@@H](n2cc(Br)c3c(N)ncnc32)[C@H](O)[C@@H]1O [SGC-0946] | 20.9 | -95.9 |
| O=C(NCCCNc1nc(Nc2cccc(CN3CCOCC3)c2)ncc1C1CC1)C1CCC1 | 16.6 | -96.5 |
| Nc1ncnc(Nc2ccc(OCc3ccccc3)c(Cl)c2)c1/C=N/OCCN1CCOCC1 | 26.3 | -98 |
| Cc1cc(C(=O)N2CCN(c3cccc(Cl)c3)CC2)n(-c2ccccc2)n1 [XRP-44X] | 2.95 | -62.8 |
| C=CC(=O)Nc1cc2c(Nc3ccc(F)c(Cl)c3)ncnc2cc1C#CC(C)(C)N1CCN(C)CC1 [AV-412] | 9.34 | -104 |
| O=C1NC(=O)/C(=C/c2ccc3nccc(-c4ccncc4)c3c2)S1 [GSK-615] | 0.934 | -82.3 |
| Cc1cnc(NC(=O)Nc2cc(Br)c(C)cc2OC[C@@H]2CNCCO2)cn1 [Rabusertib] | 16.6 | -103 |
| NC(=O)c1cccc2nc(-c3ccc([C@H]4CCCN4)cc3F)[nH]c12 | 10.5 | -67.3 |
| COC1=C(OCCCN2CCOCC2)C=C3N=CC=C(OC4=CC=C(C=C4F)\C5=C\N=C(\NC6=CC=C(F)C=C6)N(C)C5=O)C3=C1 [AMG-51] | 16.6 | -136 |
| Cc1ccc(-n2c(C)cc(-c3nnc4n3CCCCC4)c2C)cc1 | 20.9 | -47.3 |
